What all share (assay type): physicochemical
The nature of data set [1]: RF heating of kosmotropic materials in PBS (Example 2). Particulars: 342 mg/mL in PBS. The method, then: Kosmotropic material solutions in phosphate buffered saline (PBS) were prepared using concentrated PBS to maintain equal ion concentration in all solutions. Kosmotropic materials (sucrose, maltose, trehalose, glycerol, propylene glycol, ethylene glycol) and all salts were obtained from Sigma-Aldrich in high purity (>98%) and used as received.
A variable power Kanzius External RF system (13.56 MHz) Generator System (ThermMed, LLC, Erie, Pa.) was used to heat aqueous solutions and tissue samples. A high-voltage RF field is generated in the 8 cm air gap between the transmitting and receiving heads of the RF-field generator. For aqueous experiments, samples were placed in a 1.3 mL quartz cuvette on a nonconducting Teflon holder mounted on an adjustable rotary stage at ambient temperature and open to air. […] Sample temperatures were recorded using an infrared camera (FLIR SC 6000, FLIR Systems, Inc., Boston, Mass.) approximately every 0.17 seconds. […] Heating rates were calculated by fitting a linear regression to the temperature versus time plot of each sample for the duration of RF exposure or only for the first five seconds of RF exposure. The latter methodology allows for the assumption that the dielectric properties remain approximately constant in the time frame analyzed, as discussed herein. […]

Data set [2] can be described thus: RF (13.56 MHz) heating rate of kosmotropic materials dissolved in PBS, 100 W. The conditions noted are these: 500 mg/m in PBS. The method, then: Sample temperature was measured using an infrared camera. The heating rates were calculated by a least-squares linear regression of the resultant temperature-time plot (FIG. 2B). Samples were heated from 23° C. to either 27° C. or for a duration of 60 seconds, whichever occurred first. Over this selected small temperature range, the variation of the temperature-dependence of dielectric properties was negligible.
The complex relative permittivity (∈′r and e″r) of all samples was measured over the frequency range of 10 MHz to 3 GHz (FIGS. 4A-B). From these measurements, the conductivity was obtained using the relationship σ=ω∈D∈″r. […]
Each of the materials listed in FIG. 5A were dissolved at 100, 250, and 500 mg/mL in phosphate buffered saline (PBS), a biologically iso-osmolar solution with similar conductivity (1.15 S/m) to blood and body tissues. […] RF heating rates and conductivity were measured according to the procedure described in Examples 1.1 and 1.2. […]
A variable power RF (13.56 MHz) Generator System (ThermMed, LLC, Erie, Pa.) was used to heat aqueous solutions. […] Sample temperatures were recorded using an infrared camera (FLIR SC 6000, FLIR Systems, Inc., Boston, Mass.) approximately every 0.17 s. […] Heating rates were calculated by fitting a linear regression to the temperature versus time plot of each sample for the duration of RF exposure.

A short description of data set [3]: RF heating rate and conductivity of bovine blood mixed with additives. The conditions noted are these: for effect of addition on blood conductivity and heating rate: 1-20% by weight in bovine blood; for additive content from which a significant increase in blood heating rate (p<0.005) was observed: by weight in bovine blood with 2-3% EDTA. How it is done: In a similar study, various additives were added to bovine blood containing 2-3% ethylenediamine tetraacetic acid (EDTA) to prevent coagulation. The additives tested were propylene glycol, glycerol, pure water and normal saline at concentrations of 1-20% by weight.
A variable power RF (13.56 MHz) Generator System (ThermMed, LLC, Erie, Pa.) was used to heat aqueous solutions. A high-voltage RF field is generated in the 8 cm air gap between the transmitting and receiving heads of the RF field generator. For aqueous experiments, samples were placed in a 1.3 mL quartz cuvette on a non-conducting Teflon holder mounted on an adjustable rotary stage at ambient temperature and open to air. The cuvette was placed 8 mm from the transmitting head of the RF field generator and exposed to the high-voltage RF field at 100 or 900 W generator power. Sample temperatures were recorded using an infrared camera (FLIR SC 6000, FLIR Systems, Inc., Boston, Mass.) approximately every 0.17 s. At both 100 W and 900 W, samples were heated from ambient temperature (i.e., ˜23° C.) to 27° C. or for a duration of 60 seconds, whichever occurred first. Heating rates were calculated by fitting a linear regression to the temperature versus time plot of each sample for the duration of RF exposure.
Previous experiments involved conductivity modulation of PBS, a biologically relevant aqueous solution commonly used in laboratory settings. […] Blood samples contained 2-3% ethylenediamine tetraacetic acid (EDTA) to prevent coagulation. A number of additives, including water, normal saline, propylene glycol and glycerol were mixed with blood at increasing weight percent content (1-20%).

A short description of data set [4]: RF heating of neat ethanol and oils, 900 W.
Protocol: A variable power Kanzius External RF system (13.56 MHz) Generator System (ThermMed, LLC, Erie, Pa.) was used to heat aqueous solutions and tissue samples. A high-voltage RF field is generated in the 8 cm air gap between the transmitting and receiving heads of the RF-field generator. For aqueous experiments, samples were placed in a 1.3 mL quartz cuvette on a nonconducting Teflon holder mounted on an adjustable rotary stage at ambient temperature and open to air. The cuvette was placed 8 mm from the transmitting head of the RF-field generator and exposed to the high-voltage RF field at 900 W generator power. Sample temperatures were recorded using an infrared camera (FLIR SC 6000, FLIR Systems, Inc., Boston, Mass.) approximately every 0.17 seconds. Samples were heated from ambient temperature (i.e., ˜23° C. to ˜70° C. or for 120 seconds), whichever occurred first. Heating rates were calculated by fitting a linear regression to the temperature versus time plot of each sample for the duration of RF exposure or only for the first five seconds of RF exposure. The latter methodology allows for the assumption that the dielectric properties remain approximately constant in the time frame analyzed, as discussed herein.
A short description of data set [5]: RF-induced heating of m-/s-SWNT suspensions in NaCl solutions. Particulars: with 2% w/v Pluronic F108.
Protocol: Once characterized, these m-/s-SWNT samples were then exposed to a high-intensity (˜90 kV/m) 13.56 MHz RF electric field. […] Approximately 1.3 mL of each sample was placed in a cylindrical quartz cuvette (˜1 cm height by ˜1 cm diameter) and exposed to the RF field for 120 seconds or until the temperature reached 70° C. to prevent electrical arcing. Thermal imaging data was captured using an FLIR SC 600 infrared camera. Videos were also recorded simultaneously using a Nikon SLR camera. Once the samples had been exposed, the SWNTs were removed from solution using a 100 KDa filter to collect the supernatant, which was then re-exposed to the RF field. The differential heating rates determined heat production from the SWNTs themselves and not the Pluronic F108/NaCl background.
Using the highest SWNT concentration of 100 mg/L, Applicants then sought to investigate SWNT heating rates versus host medium conductivity, which was modulated using NaCl solutions. Aqueous NaCl solutions (all with 2% w/v Pluronic F108) across the molarity range 10^4 to 10^3 mM were combined with m-/s-SWNTs at a concentration of 100 mg/L. These were then exposed to the RF field and filtered to remove the supernatant, which was then re-exposed.

From patent publication US20160263150A1, “TUNING BIOLOGICAL SYSTEM PROPERTIES FOR OPTIMIZED TREATMENT EFFICACY” (Baylor College of Medicine, priority 2015, published 2016) come the findings set out here.

`OC[C@H]1O[C@H](O[C@H]2[C@H](O)[C@@H](O)C(O)O[C@@H]2CO)[C@H](O)[C@@H](O)[C@@H]1O` (mixture of isomers) [Maltose, maltose]: the “PBS heating rate with kosmotropic material” value in data set [1] came to 0.32±0.01 ° C./s.

As to `CC(O)CO` (stereo not drawn) [Propylene glycol, propylene glycol], in data set [2], the “increase of the heating rate of PBS” value was found to be 490%. In data set [3], the “effect of addition on blood conductivity and heating rate” value was “decrease in blood conductivity and increase in heating rate”; the “additive content from which a significant increase in blood heating rate (p<0.005) was observed” value was 5%. Turning to `CCO` [ethanol], the “RF heating rate of neat material” value in data set [4] was determined as 0.09 ° C./s. For the molecule `OCC(O)CO` [glycerol], in data set [3], the “effect of addition on blood conductivity and heating rate” value is “decrease in blood conductivity and increase in heating rate”; the “additive content from which a significant increase in blood heating rate (p<0.005) was observed” value is reported as 10%. `[Cl-].[Na+]` [NaCl]: the “NaCl concentration at maximum heating” value in data set [5] is recorded as 5 mM. `OC[C@H]1O[C@H](O[C@H]2O[C@H](CO)[C@@H](O)[C@H](O)[C@H]2O)[C@H](O)[C@@H](O)[C@@H]1O` [trehalose]: in data set [1], the “PBS heating rate with kosmotropic material” value was 0.33±0.01 ° C./s.
